Ki data for three compounds are collected here from ChEMBL document CHEMBL5360664, “Design, Construction, and Screening of Diversified Pyrimidine-Focused DNA-Encoded Libraries” (ACS Med Chem Lett, 2023).

Structures are written as SMILES.

The target in test [1] is T1, Bromodomain-containing protein 4 (Homo sapiens, UniProt O60885). Briefly: Binding affinity to human recombinant BRD4BD1 (44 to 168 residues) expressed in Escherichia coli […] (DE3) by fluorescence polarization analysis.
Test [2] has as its target T1, Bromodomain-containing protein 4. Description: Binding affinity to human recombinant BRD4BD2 (333 to 460 residues) expressed in Escherichia coli […] (DE3) by fluorescence polarization analysis. A general note: Polarisation of emitted light reports the rotation of a fluorescent probe.

The term Ki denotes the equilibrium dissociation constant of an inhibitor or competing ligand from its target. Regarding `CNc1cc(-c2ccc(=O)n(C)c2)nc(NCc2ccc(OC(F)(F)F)cc2)n1`, the results for the Ki in test [1] and in test [2] were 760 nM and greater than 100000 nM, respectively.

Consider `CNc1cc(-c2ccc(=O)n(C)c2)nc(NCc2cccc3ccccc23)n1`, for which the inhibition constant (Ki) in test [1] is 680 nM; in test [2], greater than 100000 nM.

`CNc1nc(NCc2cccc(-c3ccc(=O)n(C)c3)c2)cc(-c2ccc(=O)n(C)c2)n1`: the Ki in test [1] was determined as 910 nM; in test [2] it was 1440 nM.
